Earlier results, collected in article PMC9556824, “Design, synthesis and computational study of new benzofuran hybrids as dual PI3K/VEGFR2 inhibitors targeting cancer” (Scientific Reports, 2022).

Test system: VEGFR-2
Details: read-out: IC50 against VEGFR-2; cited from earlier work

COc1c(C(=O)/C=C/c2ccc([N+](=O)[O-])cc2)c(O)cc2occc12 [Compound V]
IC50: 1 nM
